# Measurements: US4493828A, “Use of thyrotropin releasing hormone and related peptides as poultry growth promotants” (Merck & Co., Inc., priority 1982, dated 1985)
# Columns and labels:
# [1] = tested on: 4-week-old Hubbard×Hubbard cockerels; test: Example 2: effect of TRH on growth in 4-week-old male chicks (25 days); type: in vivo, chicken; conditions: TRH (med.) 1.0 μg/bird daily intravenous
# Description: Four-week-old Hubbard×Hubbard cockerels were used in this experiment, and average weight was 831.38 g. Synthetic TRH (Beckman Co., CA) was dissolved in saline and given daily by intravenous injection via the brachial vein at 0.1 μg/bird, 1.0 μg/bird, and 10 μg/ bird. Birds were weighed twice a week for 4 weeks. Data were analyzed by least squares of variance, using initial weight as a covariant.
# [2] = tested on: 4-week-old Hubbard x Hubbard cockerels; test: Example 1: effect of TRH on growth in 4-week-old male chicks (17 days); type: in vivo, chicken; conditions: for body weight gain as compared with control (in words): P 0.01
# Description: Four-week-old Hubbard x Hubbard cockerels were used in this experiment, and average initial weights were 841.75 g. Synthetic TRH (Beckman Co., Calif.) was dissolved in saline and given daily by intravenous injection via the brachial vein at 0.1 μg/bird, 1.0 μg/bird, and 10.0 μg/bird. Birds were weighed and feed consumption was measured at 2 times a week for 21/2 weeks. Data were analyzed by least squares analyses of variance, using initial weight as a covariant.
# [3] = day 18 after start of treatment
# [4] = day 18 after start of treatment, p < 0.1
# [5] = day 22 after start of treatment
# [6] = day 22 after start of treatment, p < 0.05
# [7] = day 25 after start of treatment, p<0.025
# [8] = 0.1 μg/bird daily intravenous, day 3 after start of treatment
# [9] = 0.1 μg/bird daily intravenous, day 7 after start of treatment
# [10] = 0.1 μg/bird daily intravenous, day 10 after start of treatment
# [11] = 0.1 μg/bird daily intravenous, day 14 after start of treatment
# [12] = 0.1 μg/bird daily intravenous, day 17 after start of treatment
# [13] = 1.0 μg/bird daily intravenous, day 3 after start of treatment
# [14] = 1.0 μg/bird daily intravenous, day 7 after start of treatment
# [15] = 1.0 μg/bird daily intravenous, day 10 after start of treatment
# [16] = 1.0 μg/bird daily intravenous, day 14 after start of treatment
# [17] = 1.0 μg/bird daily intravenous, day 14 after start of treatment, P < 0.01
# [18] = 1.0 μg/bird daily intravenous, day 17 after start of treatment, P < 0.01
# [19] = 1.0 μg/bird/day, 14 and 17 days after the start of treatment
# [20] = 10 μg/bird daily intravenous, day 3 after start of treatment
# [21] = 10 μg/bird daily intravenous, day 7 after start of treatment
# [22] = 10 μg/bird daily intravenous, day 10 after start of treatment
# [23] = 10 μg/bird daily intravenous, day 14 after start of treatment
# [24] = 10 μg/bird daily intravenous, day 14 after start of treatment, P < 0.01
# [25] = 10 μg/bird daily intravenous, day 17 after start of treatment, P < 0.01
# [26] = 10 μg/bird/day, 14 and 17 days after the start of treatment
smiles,measurement,setting,value
"NC(=O)[C@@H]1CCCN1C(=O)[C@H](Cc1c[nH]cn1)NC(=O)[C@@H]1CCC(=O)N1 [TRH, Glp--His--Pro--NH2]","body weight, percent increased as compared with control",[1]; day 15 after start of treatment,+2.7%
same,"body weight gain, percent increase as compared with control",[1]; [3],6.6%
same,"body weight, percent increased as compared with control",[1]; [3],+3.5%
same,body weight gain,[1]; [4],1018.9 ± 22.9 g
same,"body weight, least squares mean ± standard error of the mean corrected by initial weight",[1]; [4],1860.1 ± 22.8 g
same,"body weight gain, percent increase as compared with control",[1]; [5],7.0%
same,"body weight, percent increased as compared with control",[1]; [5],4.1%
same,body weight gain,[1]; [6],1250.5 ± 24.8 g
same,"body weight, least squares mean ± standard error of the mean corrected by initial weight",[1]; [6],2091.7 ± 24.8 g
same,"body weight, percent increased as compared with control",[1]; day 25 after start of treatment,4.6%
same,"body weight gain, percent increase as compared with control",[1]; day 25 after start of treatment (end of experiment),7.5%
same,body weight gain,[1]; [7],1453.2 g
same,"body weight, least squares mean ± standard error of the mean corrected by initial weight",[1]; [7],2294.4 g
same,body weight gain,[2]; [8],171.7 ± 9.8 g
same,"body weight gain, percent increased as compared with control",[2]; [8],+0.6%
same,"body weight, least squares mean ± SEM corrected by initial weight",[2]; [8],1009.3 ± 9.7 g
same,"body weight, percent increased as compared with control",[2]; [8],+0.1%
same,body weight gain,[2]; [9],393.1 ± 14.7 g
same,"body weight gain, percent increased as compared with control",[2]; [9],+5.0%
same,"body weight, least squares mean ± SEM corrected by initial weight",[2]; [9],1230.6 ± 14.7 g
same,"body weight, percent increased as compared with control",[2]; [9],+1.5%
same,body weight gain,[2]; [10],569.4 ± 19.7 g
same,"body weight gain, percent increased as compared with control",[2]; [10],+5.5%
same,"body weight, least squares mean ± SEM corrected by initial weight",[2]; [10],1406.9 ± 19.7 g
same,"body weight, percent increased as compared with control",[2]; [10],+2.2%
same,body weight gain,[2]; [11],824.3 ± 24.9 g
same,"body weight gain, percent increased as compared with control",[2]; [11],+8.9%
same,"body weight, least squares mean ± SEM corrected by initial weight",[2]; [11],1662.1 ± 24.8 g
same,"body weight, percent increased as compared with control",[2]; [11],+4.0%
same,body weight gain,[2]; [12],999.5 ± 27.8 g
same,"body weight gain, percent increased as compared with control",[2]; [12],+7.5%
same,"body weight, least squares mean ± SEM corrected by initial weight",[2]; [12],1837.1 ± 27.8 g
same,"body weight, percent increased as compared with control",[2]; [12],+3.9%
same,body weight compared with birds receiving saline injections (in words),[2]; 0.1 μg/bird/day,slight increase in the body weight
same,body weight gain,[2]; [13],174.2 ± 9.7 g
same,"body weight gain, percent increased as compared with control",[2]; [13],+2.1%
same,"body weight, least squares mean ± SEM corrected by initial weight",[2]; [13],1011.8 ± 9.7 g
same,"body weight, percent increased as compared with control",[2]; [13],+0.3%
same,body weight gain,[2]; [14],409.2 ± 14.6 g
same,"body weight gain, percent increased as compared with control",[2]; [14],+9.3%
same,"body weight, least squares mean ± SEM corrected by initial weight",[2]; [14],1246.7 ± 14.6 g
same,"body weight, percent increased as compared with control",[2]; [14],+2.9%
same,body weight gain,[2]; [15],582.9 ± 19.6 g
same,"body weight gain, percent increased as compared with control",[2]; [15],+8.0%
same,"body weight, least squares mean ± SEM corrected by initial weight",[2]; [15],1420.5 ± 19.6 g
same,"body weight, percent increased as compared with control",[2]; [15],+3.2%
same,"body weight gain, percent increased as compared with control",[2]; [16],+13.1%
same,"body weight, percent increased as compared with control",[2]; [16],+6.0%
same,body weight gain,[2]; [17],856.2 ± 24.8 g
same,"body weight, least squares mean ± SEM corrected by initial weight",[2]; [17],1693.7 ± 24.6 g
same,"body weight, percent increased as compared with control","[2]; 1.0 μg/bird daily intravenous, day 17 after start of treatment",+6.3%
same,"body weight gain, percent increased as compared with control","[2]; 1.0 μg/bird daily intravenous, day 17 after start of treatment (end of experiment)",12.0%
same,body weight gain,[2]; [18],1041.2 ± 27.6 g
same,"body weight, least squares mean ± SEM corrected by initial weight",[2]; [18],1878.8 ± 27.6 g
same,body weight compared with birds receiving saline injections (in words),[2]; [19],increased body weight significantly
same,body weight gain as compared with control (in words),[2]; [19],significant increase
same,body weight gain,[2]; [20],181.6 ± 8.7 g
same,"body weight gain, percent increased as compared with control",[2]; [20],+6.4%
same,"body weight, least squares mean ± SEM corrected by initial weight",[2]; [20],1019.2 ± 8.7 g
same,"body weight, percent increased as compared with control",[2]; [20],+1.1%
same,body weight gain,[2]; [21],399.3 ± 13.1 g
same,"body weight gain, percent increased as compared with control",[2]; [21],+6.7%
same,"body weight, least squares mean ± SEM corrected by initial weight",[2]; [21],1236.9 ± 13.1 g
same,"body weight, percent increased as compared with control",[2]; [21],+2.1%
same,body weight gain,[2]; [22],584.0 ± 7.6 g
same,"body weight gain, percent increased as compared with control",[2]; [22],+8.2%
same,"body weight, least squares mean ± SEM corrected by initial weight",[2]; [22],1421.6 ± 17.6 g
same,"body weight, percent increased as compared with control",[2]; [22],+3.2%
same,"body weight gain, percent increased as compared with control",[2]; [23],+12.7%
same,"body weight, percent increased as compared with control",[2]; [23],+5.8%
same,body weight gain,[2]; [24],853.3 ± 22.2 g
same,"body weight, least squares mean ± SEM corrected by initial weight",[2]; [24],1690.8 ± 22.0 g
same,"body weight, percent increased as compared with control","[2]; 10 μg/bird daily intravenous, day 17 after start of treatment",+6.5%
same,body weight gain,[2]; [25],1044.9 ± 24.7 g
same,"body weight, least squares mean ± SEM corrected by initial weight",[2]; [25],1882.5 ± 24.7 g
same,body weight compared with birds receiving saline injections (in words),[2]; [26],increased body weight significantly
same,body weight gain as compared with control (in words),[2]; [26],significant increase
